Test results as given in patent US7067553B2, “Thiourea compounds and the pharmaceutical compositions containing the same” (Pacific Corporation, priority 2000, dated 2006).

Key:
vanilloid receptor = molecular target: T1, vanilloid receptor (Rattus norvegicus, UniProt O35433); assay: 45Ca influx test (calcium uptake) in cultured DRG neurons, capsaicin-stimulated; assay type: cell-based; conditions: neonatal SD rat DRG neurons; capsaicin 0.5 μM; 45Ca 10 μCi/ml; 10 min at room temperature; NR: no response
T1 construct: DRG nerve cells from the primary culture of 2–3 days were equilibrated; endogenous in cells; host or cells: primary culture of dorsal root ganglion neurons from neonatal SD rats
T1 sequence (O35433 whole entry): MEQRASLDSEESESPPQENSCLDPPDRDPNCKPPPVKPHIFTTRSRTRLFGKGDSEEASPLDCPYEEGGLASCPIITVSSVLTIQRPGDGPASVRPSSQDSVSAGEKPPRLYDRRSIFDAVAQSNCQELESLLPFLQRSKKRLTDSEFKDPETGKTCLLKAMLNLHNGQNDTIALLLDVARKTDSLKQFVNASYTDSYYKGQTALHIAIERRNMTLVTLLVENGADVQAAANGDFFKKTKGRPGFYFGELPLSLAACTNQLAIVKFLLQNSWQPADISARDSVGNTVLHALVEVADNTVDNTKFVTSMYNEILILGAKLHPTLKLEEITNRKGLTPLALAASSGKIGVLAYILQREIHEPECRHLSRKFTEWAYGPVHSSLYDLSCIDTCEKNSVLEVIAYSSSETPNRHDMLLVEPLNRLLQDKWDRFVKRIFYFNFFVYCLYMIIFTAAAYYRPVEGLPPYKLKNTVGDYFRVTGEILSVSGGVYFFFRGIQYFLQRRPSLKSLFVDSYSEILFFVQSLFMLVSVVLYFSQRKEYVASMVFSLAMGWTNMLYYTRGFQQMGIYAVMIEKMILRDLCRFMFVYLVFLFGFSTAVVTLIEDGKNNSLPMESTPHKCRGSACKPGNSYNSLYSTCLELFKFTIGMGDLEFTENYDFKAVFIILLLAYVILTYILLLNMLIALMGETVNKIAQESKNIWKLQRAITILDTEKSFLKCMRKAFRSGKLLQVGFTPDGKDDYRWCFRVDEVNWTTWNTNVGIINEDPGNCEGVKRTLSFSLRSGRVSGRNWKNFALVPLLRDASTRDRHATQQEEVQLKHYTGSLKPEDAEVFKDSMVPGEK
Description: 1) Separation of Spinal Dorsal Root Ganglia (DRG) in Newborn Rats and Primary Culture Thereof
Neonatal(2-day old or younger than 2-day old) SD rats were put in ice for 5 minutes to anesthetize and disinfected with 70% ethanol. DRG of all part of spinal cord were dissected (Wood et al., 1988, J. Neurosci. 8, pp3208–3220) and collected in DME/F12 medium to which 1.2 g/l sodium bicarbonate, 50 mg/l gentamycin were added. The DRG were incubated sequentially at 37° C. for 30 min in 200 U/ml collagenase and 2.5 mg/mil trypsin, separately. The ganglia were washed twice with DME/F12 medium supplemented with 10% horse serum, triturated through a fire-polished Pasteur pipette, filtered through Nitex 40 membrane to obtain single cell suspension. This was subjected to centrifugation, then re-suspended in cell culture medium at certain level of cell density. As the cell culture medium, DME/F12 medium supplemented with 10% horse serum, diluted 1:1 with identical medium conditioned by C6 glioma cells (2 days on a confluent monolayer) was used, and NGF(Nerve Growth Factor) was added to final concentration of 200 ng/ml. After the cells were grown 2 days in medium where cytosine arabinoside (Ara-C, 100 μM) was added to kill dividing nonneuronal cells, medium was changed to one without Ara-C. The resuspended cells were plated at a density of 1500–1700 neurons/well onto Terasaki plates previously coated with 10 μg/ml poly-D-ornithine.
2) ^45Ca Influx Experiments
DRG nerve cells from the primary culture of 2–3 days were equilibrated by washing 4 times with HEPES (10 mM, pH 7.4)-buffered Ca^2+, Mg^2+-free HBSS (H-ABSS). The solution in each well was removed from the individual well. Medium containing the test compound plus capsaicin (final concentration 0.5 μM) and ^45Ca (final concentration 10 μCi/ml) in H-HBSS was added to each well and incubated at room temperature for 10 min. Terasalki plates were washed six times with H-HBSS and dried in an oven. To each well, 0.3% SDS (10 μl) was added to elute ^45Ca. After the addition of […] of scintillation cocktail into each well, the amount of ^45Ca influx into neuron was measured by counting radioactivity.

Male ICR mice [1] = assay: Analgesic activity test: mouse writhing test by inducing with phenyl-p-quinone; assay type: in vivo; conditions: dose 1 mg/kg intraperitoneally 30 min before phenyl-p-quinone; writhes vs control
Description: (3) Analgesic Activity Test: Mouse Writhing Test by Inducing with Phenyl-p-quinone
Male ICR mice (mean body weight 25 g) were maintained in a controlled lighting environment (12 h on/12 h off for experiment. Animals received an intraperitoneal injection of 0.3 ml of the chemical irritant phenyl-p-quinone (dissolved in saline containing 5% ethanol to be a dose of 4.5 mg/lkg) and 6 min later, the number of abdominal constrictions was counted in the subsequent 6 min period. Animals (10 animals/group) received 0.2 ml of test compounds solution in vehicle of ethanol/Tween 80/saline (10/10/80) intraperitoneally 30 min before the injection of phenyl-p-quinone. A reduction in the number of writhes responding to the test drug compound relative to the number responding in saline control group was considered to be indicative of an analgesic effect. Analgesic effect was calculated by % inhibition equation (% inhibitio=(C−T)/C×100), wherein C and T represent the number of writhes in control and compound-treated group, respectively (Table 2).

Male ICR mice [2] = assay: Antiinflammatory activity test: TPA-induced mouse ear edema test; assay type: in vivo; conditions: dose 1 mg/ear topical; TPA 2.5 μg; ear weight 24 h after TPA
Description: (4) Antiinflammatory Activity Test: TPA(12-O-tetradecanoylphorbol 13-acetate)-induced Mouse Ear Edema Test
Male ICR mice(body weight 25–30 g), 10 animals/group, were treated topically on the right ear with 30 μl of TPA (2.5 μg) solution in acetone and after 15 min. 30 μl of acetone or test compound solution in acetone was applied topically. After six hours, an identical treatment was applied again. After twenty four hours following the treatment of TPA, the animals were sacrificed and ear tissue was dissected using 6 mm-diameter punch. Ear tissue dissected were weighed to the nearest 0.1 mg on an electrobalance. The increased weight of the tissue compared to control group was considered as an index of inflammation. The percent inhibition is defined by the following equation: % inlibition=(C−T)/C×100, wherein C and T represent an increase of ear weight in TPA-treated and TPA+drug-treated group, respectively.

Row | SMILES | IC50 (vanilloid receptor) [nM] | Analgesic effect (% Inhibition) (Male ICR mice [1]) [%] | Anti-inflammatory effect (% Inhibition) (Male ICR mice [2]) [%]
1 | Cc1ccc(CC(CN/C(S)=N/Cc2ccc(NS(C)(=O)=O)cc2)COC(=O)c2ccccc2)cc1C (stereo not shown) [Example 9] | 13000 |  | 
2 | CC(C)(C)C(=O)OCC(C/N=C(\S)NCc1ccc(NS(C)(=O)=O)cc1)Cc1ccc(C(C)(C)C)cc1 (stereo not shown) [Example 10] | 2500 |  | 
3 | CC(C)(C)c1ccc(CC(CNC(=S)NCc2ccc(NS(C)(=O)=O)cc2)COC(=O)c2ccccc2)cc1 (stereo not shown) [Example 11] | > 50000 |  | 
4 | COc1cc(CNC(=S)NCC(COC(=O)C(C)(C)C)Cc2ccc(C)c(C)c2)ccc1NS(C)(=O)=O (stereo not shown) [Example 12] | 680 | 65 | 41
5 | COc1cc(CNC(=S)NCC(COC(=O)c2ccccc2)Cc2ccc(C)c(C)c2)ccc1NS(C)(=O)=O (stereo not shown) [Example 13] | 38000 |  | 
6 | COc1cc(C/N=C(\S)NCC(COC(=O)c2ccccc2)Cc2ccc(C(C)(C)C)cc2)ccc1NS(C)(=O)=O (stereo not shown) [Example 15] | > 50000 |  | 
7 | Cc1ccc(CCC(CNC(=S)NCc2ccc(NS(C)(=O)=O)cc2)COC(=O)C(C)(C)C)cc1C (stereo not shown) [Example 16] | 1100 |  | 
8 | CC(C)(C)C(=O)OCC(CCc1ccc(C(C)(C)C)cc1)CNC(=S)NCc1ccc(NS(C)(=O)=O)cc1 (stereo not shown) [Example 17] | 1800 |  | 
